Measurements as given in patent US8017614B2, “Arylindenopyrimidines compound and use as an adenosine A2a receptor antagonists” (priority 2007, dated 2011).

Assays:
A1 = target: T1, A1 (Homo sapiens, UniProt P30542); experiment: A1 cell-based functional assay
T1 sequence (P30542 1-326): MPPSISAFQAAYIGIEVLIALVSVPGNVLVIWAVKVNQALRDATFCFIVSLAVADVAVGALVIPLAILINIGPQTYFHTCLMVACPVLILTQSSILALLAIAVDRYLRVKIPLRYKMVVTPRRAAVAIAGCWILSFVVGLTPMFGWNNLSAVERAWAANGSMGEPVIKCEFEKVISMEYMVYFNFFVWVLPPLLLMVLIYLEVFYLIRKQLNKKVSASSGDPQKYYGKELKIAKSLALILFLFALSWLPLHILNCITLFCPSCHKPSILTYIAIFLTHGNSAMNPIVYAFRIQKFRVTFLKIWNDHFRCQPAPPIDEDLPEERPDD

[1] = target: T2, human adenosine A2a receptors (Homo sapiens, UniProt P29274); experiment: Adenosine A2a receptor functional assay (cAMP-inducible beta-galactosidase reporter, antagonist mode vs NECA); settings: CHO-K1 cells overexpressing human adenosine A2a receptors; 50 nM NECA; read-out: A2a cell-based functional Ki
T2 construct: expressed in transfected cells; host or cells: CHO-K1
Experimental: Ligand binding assay of adenosine A2a receptor was performed using plasma membrane of HEK293 cells containing human A2a adenosine receptor (PerkinElmer, RB-HA2a) and radioligand [3H] CGS21680 (PerkinElmer, NET1021). Assay was set up in 96-well polypropylene plate in total volume of 200, uL by sequentially adding 20 pL1:20 diluted membrane, pLassay buffer (50 mM Tris HCl, pH7.4 10 mM MgCl2, 1 mM EDTA) containing [3H] CGS2168O, 50, uL diluted compound (4×) or vehicle control in assay buffer. Nonspecific binding was determined by […] NECA. Reaction was carried out at room temperature for 2 hours before filtering through 96 well GF/C filter plate pre-soaked in 50 mM Tris HCl, pH7.4 containing 0.3% polyethylenimine. Plates were then washed 5 times with cold 50 mM Tris HCl, pH7.4, dried and sealed at the bottom. Microscintillation fluid 30, ul was added to each well and the top sealed. Plates were counted on Packard Topcount for [3H]. Data was analyzed in Microsoft Excel and GraphPad Prism programs. […] Plates were counted at 405 nm on Vmax Machine (Molecular Devices). Data was analyzed in Microsoft Excel and GraphPad Prism programs. […]

T2 sequence (P29274 whole entry): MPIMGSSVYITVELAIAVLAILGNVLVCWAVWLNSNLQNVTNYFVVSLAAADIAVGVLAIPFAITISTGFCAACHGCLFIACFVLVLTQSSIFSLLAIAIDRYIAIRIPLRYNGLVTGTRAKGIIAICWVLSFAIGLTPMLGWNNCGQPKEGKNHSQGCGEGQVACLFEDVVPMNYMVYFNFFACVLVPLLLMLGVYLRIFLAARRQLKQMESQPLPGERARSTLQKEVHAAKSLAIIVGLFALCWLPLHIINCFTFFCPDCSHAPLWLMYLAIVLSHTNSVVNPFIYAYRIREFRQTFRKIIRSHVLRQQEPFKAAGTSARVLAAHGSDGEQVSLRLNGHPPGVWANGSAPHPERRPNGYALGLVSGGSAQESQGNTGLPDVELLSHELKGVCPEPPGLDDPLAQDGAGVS

Compound: CN1CCN(C(=O)c2ccc3c(c2)-c2nc(N)nc(-c4ccccc4)c2C3=O)CC1 [Compound A, 2-Amino-8-(4-methyl-piperazine-1-carbonyl)-4-phenyl-indeno[1,2-d]pyrimidin-5-one]
- Ki (A1): 58.4 nM
- Ki [1]: 8.2 nM
